In patent US11498896B2 (The Broad Institute, Inc., priority 2014, dated 2022):

Key:
human D2R/β-arrestin [1] = molecular target: T1, human D2R/β-arrestin (Homo sapiens (Human), UniProt P14416); test: cell-based; conditions: β-arrestin Antagonist, CHO-K1 cells expressing human D2R/β-arrestin; antagonist mode, quinpirole 130 nM
mice [2] = test: Amphetamine induced hyperactivity (AIH); type: in vivo; conditions: in comparison with vehicle
Description: Amphetamine Induced Hyperactivity Studies
Amphetamine-induced hyperactivity (AIH) was examined in eight identical open-field chambers (16.5″×16″×12″; AccuScan Instruments, Columbus, Ohio). Activity was detected by infrared beam breaks and recorded automatically by VersaMax software (AccuScan). Daily sessions were automatically binned in 5 minute intervals (VersaDat; AccuSacn) for statistical analysis. AIH was run over three consecutive days as follows:
Day 1: Mice were acclimated to the injection procedure by injecting 30 minutes prior to being placed in the chambers (to match the timing of day 3 compound administration). Mice were then placed into the open-field for 20 minutes and then removed for a saline injection (to match the timing of amphetamine administration on day 3). Mice were placed back into the open-field for an additional 30 minutes, at which point the mice were returned to their home cage.
Day 2 was run identically to Day 1, with the exception that the second day lasted for one hour (20 minutes→injection→40 minutes).
Day 3 was the amphetamine challenge day. Mice were pre-treated with D2 antagonist compounds (compound of Example 90) 30 minutes prior to being placed in the open field. After 20 minutes, mice were removed and challenged with amphetamine, following protocols known to one skilled in the art, for example Jones C. […]

striatal D2/D3 = test: Positron emission tomography with [11C]raclopride; type: in vivo, Male Sprague-Dawley rats; conditions: scans 1 hour after administration; in comparison with clozapine
Description: Positron Emission Tomography Studies on Rodents
All animal procedures were performed in accordance with the National Institutes of Health Guide for the Care and Use of Laboratory Animals and were approved by the Massachusetts General Hospital Institutional Animal Care and Use Facility. Male Sprague-Dawley rats (8-14 weeks old, Charles River Labs) were used for the study with animals pair-housed on a diurnal 12:12 light/dark cycle with free access to food and water. […] Respiration of each animal was monitored for the duration of the procedure.
Carbon 11-labeled raclopride ([^11C]RAC) was synthesized from the O-desmethyl RAC precursor and [11C] methyl iodide and subsequently purified by high-performance liquid chromatography as previously described (Farde L, et al. (1985) PNAS, USA 82(11):3863-3867). […] ROI dimensions, placement and striatal D2/D3 binding potential (BPND) were evaluated by graphical analysis using Logan distribution volume ratio (DVR) linearization as previously described (BPND.=DVR-1; Alexoff D, et al. (2002) J Nuc Med 44(5): 815-822; Logan J, et al. (1996) J Cerebral Blood Flow and Metabolism 16(5):[…]).

human D2R/β-arrestin [3] = molecular target: T1, human D2R/β-arrestin; test: Gi/cAMP agonist assay (Lance Ultra cAMP, forskolin); type: cell-based; conditions: CHO-K1 cells expressing human D2R/β-arrestin; agonist mode, 2.5 μM forskolin
Description: Eu-cAMP tracer solution (10 μl, PerkinElmer, 360 μl of Tracer in 17.64 ml kit buffer) and ULight-anti-cAMP solution (10 μl, 120 μL antibody in 17.88 ml kit buffer) was then added to each well.

mice [4] = test: Rotarod performance; type: in vivo; conditions: 30 mg/kg IP in mice
Description: In the test, mice are placed on a horizontally oriented, rotating cylinder (rod) suspended above a cage floor, which is low enough not to injure the animal, but high enough to induce avoidance of fall. The mice naturally try to stay on the rotating cylinder, or rotarod, and avoid falling to the ground. Mice are administered clozaril at 3 mg/kg (test group); or a compound of Formula (I) (either 10 mg/kg or 30 mg/kg or vehicle). The mice have an average weight of 20 grams (as do the mice in all examples herein). The length of time that a given animal stays on this rotating rod is a measure of the animal's balance, coordination, physical condition, and motor-planning. The speed of the rotarod is mechanically driven, and is held constant.

human D2R/β-arrestin [5] = molecular target: T1, human D2R/β-arrestin; test: β-arrestin agonist assay (PathHunter); type: cell-based; conditions: CHO-K1 cells expressing human D2R/β-arrestin; agonist mode
Description: The detection reagent (9.6 μL, Buffer:Emerald II:Galactor-Star in a 19:5:1 ratio, i.e., 14.06 mL:3.7 mL:0.74 mL=18.5 mL) was then added to the agonist plates.

Brain protein binding = type: in vitro ADME
human D2R/β-arrestin [6] = molecular target: T1, human D2R/β-arrestin; test: cell-based; conditions: cAMP Antagonist, CHO-K1 cells expressing human D2R/β-arrestin; antagonist mode, 2.5 μM forskolin and 2.7 nM quinpirole
Description: Cells were prepared for assays by growing cultures for up to 2 weeks (from about 6-20 passages). A vial of frozen cells was thawed in a water bath held at 37° C. The cells were then transferred into a 50 ml tube with 10 ml growth media. The vial was rinsed with growth media and the contents transferred to the 50 ml tube. The 50 ml tube was centrifuged at 1200 rpm for 5 minutes at room temperature. […] When the cells reached about 90% confluence (approximately 3 days between passages), the cells were passaged and used for either the agonist or antagonist assays as described below.
The cells were prepared for Gi/cAMP assays as described above. The assays were performed using a PE Lance Ultra cAMP kit (TRF0263). The cells were grown on 225 mm dishes, then washed once with 1×PBS (Cellgro) before digestion with 2.5 ml 1× Detachment reagent (DRX 92-0009) for about 2 minutes. PBS (20 ml) was then added to the plate, and the cells were transferred to a 50 ml centrifuge tube, and centrifuged at room temperature using BD Dynac III, at 1200 rpm for 5 minutes. […] The plates were then incubated at room temperature for about 30 minutes before addition of Eu-cAMP tracer solution (10 μl, PerkinElmer) and then ULight-anti-cAMP solution (10 μl) to each well.

D2 receptor = D2 receptor (Homo sapiens (Human), UniProt P14416); test: D2 radioligand binding assay
D2 receptor, sequence (P14416 whole entry): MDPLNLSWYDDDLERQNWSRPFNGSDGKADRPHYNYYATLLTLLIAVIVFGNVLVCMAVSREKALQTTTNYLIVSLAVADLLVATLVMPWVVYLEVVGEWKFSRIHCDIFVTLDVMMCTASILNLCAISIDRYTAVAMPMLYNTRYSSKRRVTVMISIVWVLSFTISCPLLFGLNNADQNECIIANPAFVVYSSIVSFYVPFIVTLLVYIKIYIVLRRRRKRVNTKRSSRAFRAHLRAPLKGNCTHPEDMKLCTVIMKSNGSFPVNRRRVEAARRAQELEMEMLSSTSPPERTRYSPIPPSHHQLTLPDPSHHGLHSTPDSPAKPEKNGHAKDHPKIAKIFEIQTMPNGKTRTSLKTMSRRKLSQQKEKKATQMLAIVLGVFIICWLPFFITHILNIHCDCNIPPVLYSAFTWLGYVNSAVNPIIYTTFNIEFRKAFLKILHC

T1 sequence (P14416 whole entry): as above

IC50 (human D2R/β-arrestin [1]): 100 to 1000 nM
EC50 (human D2R/β-arrestin [3]): < 100 nM
EC50 (human D2R/β-arrestin [5]): 1000 to 10000 nM
fraction unbound (Brain protein binding): < 0.001
IC50 (human D2R/β-arrestin [6]): > 30000 nM
Ki (D2 receptor): 100 to 1000 nM
Compound: CC1(Oc2ccc(Cl)cc2)CCN(CCOc2ccccc2C(F)(F)F)CC1 [Compound 90, 4-(4-Chlorophenoxy)-4-methyl-1-(2-(2-(trifluoromethyl)phenoxy)ethyl) piperidine]
attenuation of amphetamine induced hyperactivity (AIH) (mice [2]): dose-dependently attenuates AIH in mice and shows efficacy at 30 mg/kg
occupancy in the striatum ([11C]Raclopride PET) (striatal D2/D3): continued high occupancy in the striatum
motoric side effects (rotarod performance) (mice [4]): does not induce motoric side effects
